Active and inactive are the calls of the source.
Experiments:
[1] = biological target: Nonstructural protein 1 (Influenza A virus, UniProt Q194T2); type: functional, Influenza A virus (A/California/07/2009(H1N1))
[2] = biological target: T1, Matrix metalloproteinase-14 (Homo sapiens, UniProt P50281); assay: Dose Response confirmation of uHTS hits for a small molecule inhibitors of MT1-MMP activation in a fluorescence assay set 1.; type: functional
[3] = cells
[4] = control 3'UTR Renilla luciferase suppression, dose response, counter-screen for Shn3 inhibitor project, cell-based, Clone20-Shn3RL, cherry-picked (AID 624133); type: functional
[5] = biological target: Protein Wnt-3a (Mus musculus, UniProt P27467); assay: Wnt3a-driven reporter signaling inhibition, dose response, selectivity assay for Gli-SUFU antagonist project, Wnt-LIGHT cells, luminescence (AID 651570); type: functional; conditions: read-out: IC50_Mean;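 note: Wnt-LIGHT reporter cells stimulated with conditioned medium from Wnt3a-producing cells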
[6] = tested on: INS1; assay: beta cell apoptosis inhibitors, cytokine rescue, dose response, luminescence, retest (AID 449756); type: functional, cell-based; conditions: Rattus norvegicus;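 note: cell death triggered by IL-1 beta plus TNF-alpha plus IFN-gamma mixture; protective hits raise ATP signal compared with cytokine alone wells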
[7] = HepG2 cell cytotoxicity, dose response, cytotoxicity control for Shn3 inhibitor project, CellTiter-Glo, cherry-picked (AID 624134); type: functional, cell-based
[8] = Shn3 3'UTR reporter inhibitors, dose response, cell-based, Clone20 osteoblasts, firefly luciferase, cherry-picked (AID 624132); type: functional;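 note: firefly luciferase luminescence from reporter carrying the Shn3 3'UTR in osteoblasts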
[9] = biological target: COUP transcription factor 2 (Homo sapiens, UniProt P24468); assay: Luminescence-based cell-based high throughput dose response assay to identify inhibitors of COUP-TFII (NR2F2).; type: functional;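 note: HEK293 cells transiently cotransfected with COUP-TFII expression vector and reporter; luciferase reporter luminescence driven by COUP-TFII from the pX2-168 reporter plasmid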
[10] = biological target: Peroxisome proliferator-activated receptor gamma/Nuclear receptor corepressor 2 (Homo sapiens, UniProt P37231+Q9Y618); assay: Counterscreen for NR2E3 inverse agonists: TR-FRET-based biochemical high throughput dose response assay to identify inverse agonists of the interaction between peroxisome proliferator-activated receptor gamma (PPARg) and nuclear receptor co-repressor 2 (NCOR2).; type: functional
[11] = biological target: Photoreceptor-specific nuclear receptor (Homo sapiens, UniProt Q9Y5X4); assay: NR2E3 inverse agonists, dose response, biochemical, TR-FRET (AID 463256); type: functional
[12] = tested on: H4; assay: Luminescence Cell-Based Dose Response HTS to Identify Activators of 5'UTR Stem-Loop Driven Prion Protein mRNA Translation in H4 Neuroglioblastoma Cells. [Related pubchem assays: 1829 (Project Summary), 1814 (Primary HTS)]; type: functional; conditions: Homo sapiens
[13] = Luminescence Cell-Based Dose Response to Identify Activators of Luciferase Translation or Activity in H4-C Neuroglioblastoma Cells. [Related pubchem assays: 1829 (Project Summary), 1814 (Primary HTS)]; type: functional
[14] = Luminescence Cell-Based Dose Response HTS to Identify Activators of Luciferase Translation or Activity in H4 […] Cells. [Related pubchem assays: 1829 (Project Summary), 1814 (Primary HTS)]; type: functional
[15] = biological target: Fructose-bisphosphate aldolase (Mycobacterium tuberculosis, UniProt P9WQA3); assay: Fluorescence-based biochemical high throughput dose response assay for inhibitors of the fructose-bisphosphate aldolase (FBA) of M. tuberculosis.; type: functional
[16] = Luminescence Cell-Based Dose Confirmation to Identify Activators of 5'UTR Stem-Loop Driven Alpha-Synuclein mRNA Translation in H4 Neuroglioblastoma Cells. [Related pubchem assays: 1829 (Project Summary), 1814 (Primary HTS)]; type: functional
[17] = Luminescence Cell-Based Dose Response to Identify Activators of 5'UTR Stem-Loop Driven Prion Protein mRNA Translation in H4-C Neuroglioblastoma Cells. [Related pubchem assays: 1829 (Project Summary), 1814 (Primary HTS)]; type: functional
[18] = EDANS-DABCYL fluorescence interference, concentration series, dose response, artefact control for kallikrein-7 zymogen activator project, biochemical, fluorescence intensity, triplicate (AID 720493)
[19] = biological target: Kallikrein-7 (Homo sapiens, UniProt P49862); assay: Fluorescence Intensity-based biochemical primary high throughput dose response assay to identify activators of kallikrein-7 (K7) zymogen.
[20] = biological target: Endoplasmic reticulum aminopeptidase 1 (Homo sapiens, UniProt Q9NZ08); assay: ERAP1 aminopeptidase inhibitors, dose response, biochemical, cherry-pick, set 2, plate reader (AID 743314)
[21] = HepG2 cell cytotoxicity, dose response, cytotoxicity control, ATP luminescence, cherry-pick, activator set 2 (AID 1053143); type: functional, cell-based
[22] = biological target: T1, Matrix metalloproteinase-14; assay: Dose Response confirmation of uHTS hits for a small molecule inhibitors of MT1-MMP activation in a fluorescence assay set 2.; type: functional
[23] = tested on: A549; assay: A549 cell toxicity, dose response, cytotoxicity control, plate reader, cherry-pick samples (AID 687028); type: functional, cell-based; conditions: Homo sapiens
[24] = biological target: Paired box protein Pax-8 (Homo sapiens, UniProt Q06710); assay: inhibitors of PAX8-driven TPO luciferase reporter, dose response, RMG-I cells, cherry-pick (AID 687027); type: functional, cell-based;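 note: luciferase reporter driven by Pax8 target thyroperoxidase promoter measured by SteadyGlo luminescence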
[25] = tested on: Vero; assay: Vero cell toxicity, dose response, cytotoxicity control, plate reader, cherry-pick samples (AID 687020); type: functional, cell-based; conditions: Chlorocebus sabaeus
[26] = tested on: BHK-21; assay: BHK-21 cell toxicity, dose response, cytotoxicity control, plate reader, cherry-pick samples (AID 687030); type: functional, cell-based; conditions: Mesocricetus auratus
[27] = LMP1-driven NF-kB reporter inhibition, dose response, cell-based, luciferase reporter, luminescence, dry powder, set 2 (AID 624376); type: functional
[28] = inhibitors of LMP1-driven NF-kB reporter, dose response, cell-based, EBV LMP1, luciferase, dry powder, set 2 (AID 624361); type: functional
[29] = NIH:OVCAR-3 ovarian cancer cell cytotoxicity, dose response, PAX8 inhibitor project, plate reader, dry powder samples (AID 743044); type: functional, cell-based
[30] = cytotoxicity in OVCAR8 ovarian cancer cells, dose response, PAX8 project, cell-based, plate reader, dry powder samples (AID 743197); type: functional; conditions: OVCAR-8
[31] = inhibitors of TNFa-stimulated NF-kB luciferase reporter, dose response, selectivity assay for EBV LMP1 NF-kB inhibitor project, HEK293 LMP1 reporter cells, dry powder, set 2 (AID 624369); type: functional
[32] = tested on: HeLa; assay: HeLa cell cytotoxicity, dose response, cytotoxicity control, ATP luminescence, cherry-pick samples (AID 687004); type: functional, cell-based; conditions: Homo sapiens
[33] = tested on: HEK293; assay: HEK293T cell cytotoxicity, dose response, cytotoxicity control, ATP luminescence, cherry-pick samples (AID 687005); type: functional, cell-based; conditions: Homo sapiens;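 note: cells exposed to compound for 48 hours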
[34] = HEK293 Cytotoxicity Assay Measured in Cell-Based System Using Plate Reader - 7071-01_Inhibitor_Dose_CherryPick_Activity_Set2.; type: functional

Chain of Paired box protein Pax-8 (Q06710 whole entry): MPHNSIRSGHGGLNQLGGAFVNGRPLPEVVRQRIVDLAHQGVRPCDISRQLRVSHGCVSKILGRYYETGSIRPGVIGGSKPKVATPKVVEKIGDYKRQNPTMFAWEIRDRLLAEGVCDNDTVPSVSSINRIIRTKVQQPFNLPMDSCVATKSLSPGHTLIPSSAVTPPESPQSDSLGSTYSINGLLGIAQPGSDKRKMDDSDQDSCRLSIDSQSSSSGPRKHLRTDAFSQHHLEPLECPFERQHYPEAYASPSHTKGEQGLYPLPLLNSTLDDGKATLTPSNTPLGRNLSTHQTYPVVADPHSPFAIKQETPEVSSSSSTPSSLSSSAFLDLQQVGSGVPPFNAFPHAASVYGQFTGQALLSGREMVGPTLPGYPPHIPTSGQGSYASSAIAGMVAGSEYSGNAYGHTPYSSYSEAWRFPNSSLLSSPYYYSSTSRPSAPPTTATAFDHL
Chain of Nonstructural protein 1 (Q194T2 whole entry): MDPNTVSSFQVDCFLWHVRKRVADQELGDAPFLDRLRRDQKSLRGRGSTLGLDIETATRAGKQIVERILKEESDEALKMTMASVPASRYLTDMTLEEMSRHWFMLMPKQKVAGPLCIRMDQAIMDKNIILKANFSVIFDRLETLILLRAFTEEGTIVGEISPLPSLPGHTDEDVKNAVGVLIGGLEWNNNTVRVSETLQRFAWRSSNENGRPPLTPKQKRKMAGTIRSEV
Chain of Endoplasmic reticulum aminopeptidase 1 (Q9NZ08 whole entry): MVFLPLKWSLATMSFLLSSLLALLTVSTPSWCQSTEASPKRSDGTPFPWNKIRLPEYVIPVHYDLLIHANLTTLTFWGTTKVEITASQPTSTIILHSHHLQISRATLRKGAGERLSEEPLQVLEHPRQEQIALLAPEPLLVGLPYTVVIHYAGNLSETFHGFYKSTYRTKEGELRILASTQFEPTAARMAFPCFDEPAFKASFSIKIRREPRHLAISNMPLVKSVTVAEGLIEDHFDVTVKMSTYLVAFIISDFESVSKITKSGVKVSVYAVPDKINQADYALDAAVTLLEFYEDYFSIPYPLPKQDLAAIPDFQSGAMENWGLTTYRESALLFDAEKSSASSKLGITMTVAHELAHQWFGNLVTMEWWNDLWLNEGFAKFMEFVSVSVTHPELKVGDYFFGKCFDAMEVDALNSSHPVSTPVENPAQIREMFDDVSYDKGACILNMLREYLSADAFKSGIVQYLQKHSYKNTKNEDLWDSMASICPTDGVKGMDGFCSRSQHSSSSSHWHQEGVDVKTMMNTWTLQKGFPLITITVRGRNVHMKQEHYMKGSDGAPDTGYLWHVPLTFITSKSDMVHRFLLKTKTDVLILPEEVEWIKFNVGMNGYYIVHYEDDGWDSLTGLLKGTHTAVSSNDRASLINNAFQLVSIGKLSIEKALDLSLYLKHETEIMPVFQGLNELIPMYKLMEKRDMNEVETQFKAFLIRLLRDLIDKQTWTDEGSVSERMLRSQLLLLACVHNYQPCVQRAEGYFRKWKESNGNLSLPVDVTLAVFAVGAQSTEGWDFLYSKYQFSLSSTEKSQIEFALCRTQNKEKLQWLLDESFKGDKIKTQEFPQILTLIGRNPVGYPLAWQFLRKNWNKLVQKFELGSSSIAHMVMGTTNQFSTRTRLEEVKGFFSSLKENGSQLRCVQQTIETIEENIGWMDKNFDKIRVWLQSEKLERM
Chain of Kallikrein-7 (P49862 whole entry): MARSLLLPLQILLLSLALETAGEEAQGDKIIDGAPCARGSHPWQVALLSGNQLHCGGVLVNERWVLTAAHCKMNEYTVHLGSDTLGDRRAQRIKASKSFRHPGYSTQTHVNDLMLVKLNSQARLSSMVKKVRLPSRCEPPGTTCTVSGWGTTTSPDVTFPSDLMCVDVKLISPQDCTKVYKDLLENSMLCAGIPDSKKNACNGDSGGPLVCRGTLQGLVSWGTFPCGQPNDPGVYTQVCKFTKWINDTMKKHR
Chain of Peroxisome proliferator-activated receptor gamma/Nuclear receptor corepressor 2 (P37231 whole entry): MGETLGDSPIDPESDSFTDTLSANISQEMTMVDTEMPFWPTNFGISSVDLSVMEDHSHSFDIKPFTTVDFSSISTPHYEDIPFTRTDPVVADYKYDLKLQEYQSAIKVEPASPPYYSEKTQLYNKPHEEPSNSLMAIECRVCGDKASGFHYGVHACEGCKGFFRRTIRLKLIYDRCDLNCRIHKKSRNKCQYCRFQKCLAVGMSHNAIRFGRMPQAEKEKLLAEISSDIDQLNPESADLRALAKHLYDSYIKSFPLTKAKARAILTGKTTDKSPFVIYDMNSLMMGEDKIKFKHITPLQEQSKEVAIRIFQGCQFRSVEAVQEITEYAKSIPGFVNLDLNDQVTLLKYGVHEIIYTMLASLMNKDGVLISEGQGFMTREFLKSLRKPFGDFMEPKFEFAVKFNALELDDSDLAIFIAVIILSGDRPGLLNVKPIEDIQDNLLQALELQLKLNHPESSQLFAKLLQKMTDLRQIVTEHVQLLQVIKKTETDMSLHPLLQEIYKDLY
Chain of Peroxisome proliferator-activated receptor gamma/Nuclear receptor corepressor 2 (Q9Y618 whole entry): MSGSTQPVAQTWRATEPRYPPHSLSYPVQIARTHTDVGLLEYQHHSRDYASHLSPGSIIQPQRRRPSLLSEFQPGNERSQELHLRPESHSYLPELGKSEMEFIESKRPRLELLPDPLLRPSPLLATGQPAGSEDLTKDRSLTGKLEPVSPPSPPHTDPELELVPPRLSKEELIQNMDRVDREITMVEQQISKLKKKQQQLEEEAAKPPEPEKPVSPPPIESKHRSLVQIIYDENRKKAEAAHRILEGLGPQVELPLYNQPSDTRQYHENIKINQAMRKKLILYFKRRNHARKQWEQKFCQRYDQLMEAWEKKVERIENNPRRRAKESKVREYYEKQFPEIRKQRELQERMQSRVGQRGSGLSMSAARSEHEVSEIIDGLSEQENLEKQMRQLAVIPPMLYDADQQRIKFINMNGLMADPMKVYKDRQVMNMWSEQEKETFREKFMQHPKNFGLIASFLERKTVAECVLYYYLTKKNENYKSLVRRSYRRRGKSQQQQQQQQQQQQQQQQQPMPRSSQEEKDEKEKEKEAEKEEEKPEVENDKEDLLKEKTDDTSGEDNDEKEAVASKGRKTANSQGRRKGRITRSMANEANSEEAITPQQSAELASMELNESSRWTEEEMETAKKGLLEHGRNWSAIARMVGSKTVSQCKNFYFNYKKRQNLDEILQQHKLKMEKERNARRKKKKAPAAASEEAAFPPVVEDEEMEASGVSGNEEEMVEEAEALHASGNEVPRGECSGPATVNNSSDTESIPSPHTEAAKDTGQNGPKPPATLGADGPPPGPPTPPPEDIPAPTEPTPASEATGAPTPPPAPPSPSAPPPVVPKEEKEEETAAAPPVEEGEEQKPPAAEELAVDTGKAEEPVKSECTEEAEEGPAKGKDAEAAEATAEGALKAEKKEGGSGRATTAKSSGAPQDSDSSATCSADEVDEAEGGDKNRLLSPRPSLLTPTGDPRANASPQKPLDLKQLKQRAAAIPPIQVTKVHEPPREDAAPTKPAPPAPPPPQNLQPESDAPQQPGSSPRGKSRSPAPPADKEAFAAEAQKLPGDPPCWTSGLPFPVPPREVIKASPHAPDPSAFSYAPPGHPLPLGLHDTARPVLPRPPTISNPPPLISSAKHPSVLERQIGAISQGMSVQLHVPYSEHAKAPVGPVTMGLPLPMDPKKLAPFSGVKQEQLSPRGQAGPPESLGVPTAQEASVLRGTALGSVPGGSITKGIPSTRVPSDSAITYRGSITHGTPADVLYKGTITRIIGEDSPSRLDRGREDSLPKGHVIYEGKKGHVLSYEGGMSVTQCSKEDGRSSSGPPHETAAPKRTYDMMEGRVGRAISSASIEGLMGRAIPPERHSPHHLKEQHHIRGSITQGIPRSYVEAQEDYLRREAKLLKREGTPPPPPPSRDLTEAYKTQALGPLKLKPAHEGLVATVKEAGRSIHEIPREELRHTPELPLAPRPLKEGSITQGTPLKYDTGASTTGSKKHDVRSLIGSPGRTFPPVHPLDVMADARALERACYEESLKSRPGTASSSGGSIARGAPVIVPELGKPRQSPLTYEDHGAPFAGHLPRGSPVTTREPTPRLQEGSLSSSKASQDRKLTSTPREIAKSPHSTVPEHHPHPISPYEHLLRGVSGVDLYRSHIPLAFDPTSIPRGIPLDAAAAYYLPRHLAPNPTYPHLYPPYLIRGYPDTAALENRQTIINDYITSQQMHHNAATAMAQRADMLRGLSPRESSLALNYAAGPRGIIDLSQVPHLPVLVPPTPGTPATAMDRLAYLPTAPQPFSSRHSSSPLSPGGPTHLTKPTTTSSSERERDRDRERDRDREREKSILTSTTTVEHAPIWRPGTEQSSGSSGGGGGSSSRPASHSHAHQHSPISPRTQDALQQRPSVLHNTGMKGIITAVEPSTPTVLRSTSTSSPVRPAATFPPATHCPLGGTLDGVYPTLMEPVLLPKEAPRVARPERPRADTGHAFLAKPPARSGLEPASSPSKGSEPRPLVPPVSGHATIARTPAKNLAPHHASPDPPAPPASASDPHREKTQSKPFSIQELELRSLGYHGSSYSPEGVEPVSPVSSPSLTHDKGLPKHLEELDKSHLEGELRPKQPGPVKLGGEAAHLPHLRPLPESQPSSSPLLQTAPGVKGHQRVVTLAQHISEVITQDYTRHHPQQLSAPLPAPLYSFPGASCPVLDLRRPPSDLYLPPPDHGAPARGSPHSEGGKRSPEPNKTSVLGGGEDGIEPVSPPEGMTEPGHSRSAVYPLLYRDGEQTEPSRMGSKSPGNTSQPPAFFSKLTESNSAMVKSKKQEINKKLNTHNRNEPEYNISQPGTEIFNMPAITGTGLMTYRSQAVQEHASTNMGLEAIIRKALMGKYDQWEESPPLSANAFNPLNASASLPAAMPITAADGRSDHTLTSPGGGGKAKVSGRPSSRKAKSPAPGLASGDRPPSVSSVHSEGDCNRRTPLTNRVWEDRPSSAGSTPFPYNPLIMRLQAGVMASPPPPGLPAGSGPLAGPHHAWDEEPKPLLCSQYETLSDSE

Cc1cc(N(CCO)CCO)ccc1N=Nc1cc(F)ccc1F
IC50 [1]: 19.2 µM (active) | IC50 [2]: 31.6 µM (inactive)

Cc1cccn2c(=O)c3cc(C(N)=S)c(=N)n(CCCOC(C)C)c3nc12
AC50 [3]: 0.626 µM (active)

O=C(c1cc(COc2cccc3cnccc23)on1)N1CCCC(CCCO)C1 (stereo unspecified)
AC50 [4]: 1.14 µM (active) | IC50 [5]: 0.338 µM (active) | AC50 [6]: 1.41 µM (active) | AC50 [7]: 1.98 µM (active) | AC50 [8]: 0.519 µM (active) | IC50 [9]: 2.58 µM (active)

CN1CCSc2ccc(C(=O)Nc3ccc(Cl)cc3)cc21
IC50 [10]: 8.59 µM (active) | IC50 [11]: 9.21 µM (active) | EC50 [12]: 0.101 µM (active) | EC50 [13]: 0.366 µM (active) | EC50 [14]: 0.148 µM (active) | IC50 [15]: > 1.11 µM (active) | EC50 [16]: 0.321 µM (active) | EC50 [17]: 0.208 µM (active)

CN1CCN(Cc2c(O)c(Cl)cc3c(-c4ccccc4)cc(=O)oc23)CC1
EC50 [18]: > 0.286 µM (active) | EC50 [19]: 68.3 µM (inactive)

CCc1c(C)c2cc(Cl)c(O)c(CN(C)C)c2oc1=O
AC50 [20]: 5.35 µM (active)

Cc1c(Cl)ccc2sc(NC(=O)c3ccco3)nc12
AC50 [21]: 17.4 µM (active)

CN(CCCC(=O)O)c1ccc(N=Nc2ccc([N+](=O)[O-])cc2)cc1
IC50 [22]: 18.9 µM (active) | IC50 [1]: 9.48 µM (active)

CCCCCc1c(-c2ccccc2OC)ncn1CCc1ccccc1OC
AC50 [23]: 13.9 µM (active) | AC50 [24]: 24.9 µM (active) | AC50 [25]: 3.91 µM (active)

COc1ccc2c3c([nH]c2c1)[C@H](CO)N(C(=O)Nc1cccc(F)c1)CC31CN(S(=O)(=O)c2ccccc2)C1
AC50 [26]: 34.1 µM (active)

CC(=O)N(C)C[C@@H]1Oc2cc(C#Cc3ccc(F)cc3)ccc2S(=O)(=O)N([C@H](C)CO)C[C@H]1C
AbsAC35 [27]: 109.84 µM | AbsAC35 [28]: 57.53 µM

COc1ccccc1C#Cc1ccc2c(c1)O[C@H](CN(C)Cc1cccnc1)[C@H](C)CN([C@@H](C)CO)S2(=O)=O
AC50 [29]: 21.4 µM (active) | AC50 [30]: 32.2 µM (active) | AC50 [24]: 7.51 µM (active) | AbsAC35 [31]: 38.33 µM

COCCNC(=O)C[C@H]1C=C[C@@H](NS(=O)(=O)c2ccc(C)cc2)[C@H](CO)O1
AC50 [32]: 19.9 µM (active) | AC50 [33]: 23.9 µM (active) | AC50 [34]: 23.9 µM (active)
